Read-outs that look alike come from different tables or passages of the source. *1 amine or outer side, *2 acyl side, *3 side chain or, on linkers, in order; H or OH if unused. Where a SMILES comes first, the peptide text is derived from it. Bridges are numbered along the chain shown (N, C = ends). [ ]: non-standard residue; d: D form. The star is where a group is joined. X5 = NC(=O)[C@H](CCCCNC(=O)CN1CCN(CC(=O)O)CCN(CC(=O)O)CCN(CC(=O)O)CC1)NC(=O)CCC(=O)NCCCOCCOCCOCCCN*; X11 = O=C(CN1CCN2CCN3CCN(CC1)CC(=O)[O][In]([O]C(=O)C2)[O]C(=O)C3)NCCCOCCOCCOCCCN*; X3 = O=C(O)CN1CCN(CC(=O)O)CCN(CC(=O)NCCCOCCOCCOCCCN*)CCN(CC(=O)O)CC1; NH(1-deoxy-D-glucityl) = OC[C@@H](O)[C@@H](O)[C@H](O)[C@@H](O)CN*; DOTA = O=C(O)CN1CCN(CC(=O)O)CCN(CC(=O)*)CCN(CC(=O)O)CC1; Trp(5-Cl) = N[C@@H](Cc1c[nH]c2ccc(Cl)cc12)C(=O)O; Phe(3,4-Cl2) = N[C@@H](Cc1ccc(Cl)c(Cl)c1)C(=O)O; Pyridine(2,6-diCH2) = c1cc(C[*:1])nc(C[*:2])c1; Trp(6-F) = N[C@@H](Cc1c[nH]c2cc(F)ccc12)C(=O)O; Trp(7-F) = N[C@@H](Cc1c[nH]c2c(F)cccc12)C(=O)O; Phe(2,4-Cl2) = N[C@@H](Cc1ccc(Cl)cc1Cl)C(=O)O; Propanoyl(3-(4-Cl-Ph)) = O=C(CCc1ccc(Cl)cc1)*; Pro(4R-NH2) = N[C@H]1CN[C@H](C(=O)O)C1; 1Nal = N[C@@H](Cc1cccc2ccccc12)C(=O)O; mXylylene = c1cc(C[*:1])cc(C[*:2])c1; PEG6 = NCCOCCOCCOCCOCCOCCOCCC(=O)O; X7 = c1cc(CSCCN[*:2])cc(C[*:1])c1; Hyp = O=C(O)[C@@H]1C[C@@H](O)CN1; X1 = O=C(CN1CCC(N[*:1])CC1)[*:2]; Suc = O=C(CCC(=O)[*:2])[*:1]; αMeS = C[C@](N)(CO)C(=O)O; Ac6c = NC1(C(=O)O)CCCCC1; Api = NC1(C(=O)O)CCNCC1; Thp = NC1(C(=O)O)CCOCC1; Aib = CC(C)(N)C(=O)O
Target: T1, GIPR (CHO-K1-hGIPR cells) (Homo sapiens, UniProt P48546)
T1 construct: host or cells: CHO-K1
T1 sequence (P48546 22-466): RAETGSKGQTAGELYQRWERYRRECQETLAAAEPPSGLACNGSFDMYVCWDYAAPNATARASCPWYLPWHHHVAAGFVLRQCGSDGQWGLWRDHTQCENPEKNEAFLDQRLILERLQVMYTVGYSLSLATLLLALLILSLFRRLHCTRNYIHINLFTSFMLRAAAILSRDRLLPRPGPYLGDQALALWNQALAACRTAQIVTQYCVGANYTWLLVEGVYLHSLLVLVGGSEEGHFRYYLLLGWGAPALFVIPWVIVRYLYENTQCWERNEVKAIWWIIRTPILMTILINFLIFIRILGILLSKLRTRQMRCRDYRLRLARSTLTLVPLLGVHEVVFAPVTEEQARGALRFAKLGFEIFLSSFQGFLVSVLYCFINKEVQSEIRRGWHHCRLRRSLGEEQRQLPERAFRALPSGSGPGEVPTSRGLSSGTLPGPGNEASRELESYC
Assay: FACS binding assay
Conditions: read-out: pIC50 Category (converted)
Method in brief: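 Steps: detach CHO-K1-hGIPR cells (Accutase); wash in PBS/1% FCS; adjust to 500.000 cells per mL; wash ice-cold; incubate APC-streptavidin 1 μg/mL, 30 min on ice; wash twice; acquire on flow cytometer; fit MFI-concentration data with a four-parameter logistic model.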

[1] = competition with 20 nM GIP-057, 4° C., 1 hour
[2] = competition with 20 nM GIP-057, 4° C. for 1 hour

IC50 [1] [nM] | IC50 [2] [nM] | Structure (SMILES)
< 10 |  | CC[C@H](C)[C@@H]1NC(=O)[C@H](CC(C)C)NC(=O)C2(CCOCC2)NC(=O)[C@@H](NC(=O)[C@@H](NC(=O)[C@H](CCC(=O)O)NC(=O)[C@@H]2C[C@@H](O)CN2C(=O)[C@H](Cc2c[nH]c3ccc(Cl)cc23)NC(=O)[C@H](Cc2c[nH]c3ccccc23)NC(=O)[C@H](CC(=O)O)NC(C)=O)[C@@H](C)CC)CSCc2cccc(n2)CSC[C@@H](C(N)=O)NC1=O [GIP-218, Ac-Asp-Trp-5Clw-Hyp-Glu-Ile-[Cys(2Lut)-Thp-Leu-Ile-Cys]-NH2] (Ac-DW[Trp(5-Cl)][Hyp]EIC[Thp]LIC-NH2; linker 7-11 via Pyridine(2,6-diCH2))
< 10 |  | CC[C@H](C)[C@@H]1NC(=O)[C@H](CC(C)C)NC(=O)C2(CCOCC2)NC(=O)[C@@H](NC(=O)[C@@H](CC(C)C)NC(=O)[C@H](CCC(=O)O)NC(=O)[C@@H]2C[C@@H](O)CN2C(=O)[C@H](Cc2c[nH]c3ccc(Cl)cc23)NC(=O)[C@H](Cc2ccc(Cl)cc2Cl)NC(=O)[C@H](CC(=O)O)NC(C)=O)CSCc2cccc(n2)CSC[C@@H](C(N)=O)NC1=O [GIP-212, Ac-Asp-Egm-5Clw-Hyp-Glu-leu-[Cys(2Lut)-Thp-Leu-Ile-Cys]-NH2] (Ac-D[Phe(2,4-Cl2)][Trp(5-Cl)][Hyp]E[dL]C[Thp]LIC-NH2; linker 7-11 via Pyridine(2,6-diCH2))
< 10 |  | CC[C@H](C)[C@@H]1NC(=O)[C@H](CC(C)C)NC(=O)C2(CCOCC2)NC(=O)[C@@H](NC(=O)[C@@H](CC(C)C)NC(=O)[C@H](CCC(=O)O)NC(=O)[C@@H]2C[C@@H](O)CN2C(=O)[C@H](Cc2c[nH]c3ccc(Cl)cc23)NC(=O)[C@H](Cc2c[nH]c3c(F)cccc23)NC(=O)[C@H](CC(=O)O)NC(C)=O)CSCc2cccc(n2)CSC[C@@H](C(N)=O)NC1=O [GIP-221, Ac-Asp-7Fw-5Clw-Hyp-Glu-leu-[Cys(2Lut)-Thp-Leu-Ile-Cys]-NH2] (Ac-D[Trp(7-F)][Trp(5-Cl)][Hyp]E[dL]C[Thp]LIC-NH2; linker 7-11 via Pyridine(2,6-diCH2))
 | 100 to 794 | CC[C@H](C)[C@@H]1NC(=O)[C@H](CC(C)C)NC(=O)[C@@H](C)NC(=O)[C@@H](NC(=O)[C@@H](CC(C)C)NC(=O)[C@H](CCC(=O)O)NC(=O)[C@@H]2CCCN2C(=O)[C@H](Cc2c[nH]c3ccccc23)NC(=O)[C@H](Cc2c[nH]c3ccccc23)NC(=O)CCC(=O)O)CSCc2cccc(c2)CSC[C@@H](C(N)=O)NC1=O [GIP-318, HO-Succinyl-Trp-Trp-Pro-Glu-leu-[Cys(3MeBn)-ala-Leu-Ile-Cys]-NH2] (Suc-WWPE[dL]C[dA]LIC-NH2; linker 6-10 via mXylylene)
< 10 |  | CC[C@H](C)[C@@H]1NC(=O)[C@H](CC(C)C)NC(=O)C2(CCOCC2)NC(=O)[C@@H](NC(=O)[C@@H](CC(C)C)NC(=O)[C@H](CCC(=O)O)NC(=O)[C@@H]2C[C@@H](O)CN2C(=O)[C@H](Cc2c[nH]c3ccc(Cl)cc23)NC(=O)[C@H](Cc2ccc(Cl)c(Cl)c2)NC(=O)[C@H](CC(=O)O)NC(C)=O)CSCc2cccc(n2)CSC[C@@H](C(N)=O)NC1=O [GIP-211, Ac-Asp-Eaa-5Clw-Hyp-Glu-leu-[Cys(2Lut)-Thp-Leu-Ile-Cys]-NH2] (Ac-D[Phe(3,4-Cl2)][Trp(5-Cl)][Hyp]E[dL]C[Thp]LIC-NH2; linker 7-11 via Pyridine(2,6-diCH2))

The next lines start with the compound.

Structure (SMILES) | IC50 [1] [nM] | IC50 [2] [nM]
CC[C@H](C)[C@@H]1NC(=O)[C@H](CC(C)C)NC(=O)C2(CCCCC2)NC(=O)[C@@H](NC(=O)[C@@H](CC(C)C)NC(=O)[C@H](CCC(=O)O)NC(=O)[C@@H]2CCCN2C(=O)[C@H](Cc2cccc3ccccc23)NC(=O)[C@H](Cc2c[nH]c3ccccc23)NC(=O)[C@H](CC(=O)O)NC(C)=O)CSCc2cccc(c2)CSC[C@@H](C(=O)NCCCOCCOCCOCCCNC(=O)CCC(=O)N[C@@H](CCCCNC(=O)CN2CCN(CC(=O)O)CCN(CC(=O)O)CCN(CC(=O)O)CC2)C(N)=O)NC1=O [GIP-080, Ac-Asp-Trp-1Ni-Pro-Glu-leu-[Cys(3MeBn)-Egz-Leu-Ile-Cys]-Ttds-Lys(DOTA)-NH2] (Ac-DW[1Nal]PE[dL]C[Ac6c]LIC-X5; linker 7-11 via mXylylene) | < 10 | 
CC[C@H](C)[C@@H]1NC(=O)[C@H](CC(C)C)NC(=O)C(C)(C)NC(=O)[C@@H](NC(=O)[C@@H](CC(C)C)NC(=O)[C@H](CCC(=O)O)NC(=O)[C@@H]2CCCN2C(=O)[C@H](Cc2c[nH]c3ccccc23)NC(=O)[C@H](Cc2c[nH]c3cc(F)ccc23)NC(=O)[C@H](CC(=O)O)NC(=O)CCC(=O)NCCCOCCOCCOCCCNC(=O)CN2CCN(CC(=O)O)CCN(CC(=O)O)CCN(CC(=O)O)CC2)CSCc2cccc(c2)CSCCNC1=O [GIP-283, DOTA-Ttds-Asp-6Fw-Trp-Pro-Glu-leu-[Cys(3MeBn)-Aib-Leu-Ile-AET]] ({X3-Suc}-D[Trp(6-F)]WPE[dL]C[Aib]LI; linker 7-C via X7) |  | 100 to 794
CC[C@H](C)[C@@H]1NC(=O)[C@H](CC(C)C)NC(=O)C2(CCNCC2)NC(=O)[C@@H](NC(=O)[C@@H](CC(C)C)NC(=O)[C@H](CCC(=O)O)NC(=O)[C@@H]2CCCN2C(=O)[C@H](Cc2c[nH]c3ccc(Cl)cc23)NC(=O)[C@H](Cc2c[nH]c3ccccc23)NC(=O)[C@H](CC(=O)O)NC(=O)CCC(=O)NCCCOCCOCCOCCCNC(=O)CN2CCN(CC(=O)O)CCN(CC(=O)O)CCN(CC(=O)O)CC2)CSCc2cccc(c2)CSCCNC1=O [GIP-088, DOTA-Ttds-Asp-Trp-5Clw-Pro-Glu-leu-[Cys(3MeBn)-Apc-Leu-Ile-AET]] ({X3-Suc}-DW[Trp(5-Cl)]PE[dL]C[Api]LI; linker 7-C via X7) | < 10 | 
CC[C@H](C)[C@@H]1NC(=O)[C@H](CC(C)C)NC(=O)C2(CCOCC2)NC(=O)[C@@H](NC(=O)[C@@H](CC(C)C)NC(=O)[C@H](CCC(=O)O)NC(=O)[C@@H]2C[C@@H](N)CN2C(=O)[C@H](Cc2c[nH]c3ccc(Cl)cc23)NC(=O)[C@H](Cc2c[nH]c3ccccc23)NC(=O)[C@H](CC(=O)O)NC(=O)[C@@H](CCC(=O)NC[C@H](O)[C@@H](O)[C@H](O)[C@H](O)CO)NC(=O)CCOCCOCCOCCOCCOCCOCCNC(=O)CN2CCN(CC(=O)O)CCN(CC(=O)O)CCN(CC(=O)O)CC2)CSCc2cccc(n2)CSC[C@@H](C(=O)NC2CCN(CC(=O)N[C@H](CCC(=O)NC[C@H](O)[C@@H](O)[C@H](O)[C@H](O)CO)C(N)=O)CC2)NC1=O [GIP-037, DOTA-PEG6-glu(AGLU)-Asp-Trp-5Clw-Tap-Glu-leu-[Cys(2Lut)-Thp-Leu-Ile-Cys]-APAc-glu(AGLU)-NH2] ({DOTA-PEG6}-[dE](NH(1-deoxy-D-glucityl))DW[Trp(5-Cl)][Pro(4R-NH2)]E[dL]C[Thp]LIC[X1][dE](NH(1-deoxy-D-glucityl))-NH2; linker 8-12 via Pyridine(2,6-diCH2)) | < 10 | 
CC[C@H](C)[C@@H]1NC(=O)[C@H](CC(C)C)NC(=O)C(C)(C)NC(=O)[C@@H](NC(=O)[C@@H](CC(C)C)NC(=O)[C@H](CCC(=O)O)NC(=O)[C@@H]2CCCN2C(=O)[C@H](Cc2c[nH]c3ccc(Cl)cc23)NC(=O)[C@H](Cc2c[nH]c3ccccc23)NC(=O)[C@H](CC(=O)O)NC(=O)CN2CCC(NC(=O)CN3CCN(CC(=O)O)CCN(CC(=O)O)CCN(CC(=O)O)CC3)CC2)CSCc2cccc(c2)CSCCNC1=O [GIP-089, DOTA-APAc-Asp-Trp-5Clw-Pro-Glu-leu-[Cys(3MeBn)-Aib-Leu-Ile-AET]] ({DOTA}-[X1]DW[Trp(5-Cl)]PE[dL]C[Aib]LI; linker 8-C via X7) | < 10 | 
CC[C@H](C)[C@@H]1NC(=O)[C@H](CC(C)C)NC(=O)C(C)(C)NC(=O)[C@@H](NC(=O)[C@@H](CC(C)C)NC(=O)[C@H](CCC(=O)O)NC(=O)[C@@H]2CCCN2C(=O)[C@H](Cc2c[nH]c3ccccc23)NC(=O)[C@H](Cc2c[nH]c3ccccc23)NC(=O)[C@H](CC(=O)O)NC(=O)CCc2ccc(Cl)cc2)CSCc2cccc(c2)CSC[C@@H](C(=O)NCCCOCCOCCOCCCNC(=O)CCC(=O)N[C@@H](CCCCNC(=O)CN2CCN(CC(=O)O)CCN(CC(=O)O)CCN(CC(=O)O)CC2)C(N)=O)NC1=O [GIP-279, 4ClPhp-Asp-Trp-Trp-Pro-Glu-leu-[Cys(3MeBn)-Aib-Leu-Ile-Cys]-Ttds-Lys(DOTA)-NH2] ({Propanoyl(3-(4-Cl-Ph))}-DWWPE[dL]C[Aib]LIC-X5; linker 7-11 via mXylylene) |  | 100 to 794
CC[C@H](C)[C@@H]1NC(=O)[C@H](CC(C)C)NC(=O)[C@](C)(CO)NC(=O)[C@@H](NC(=O)[C@@H](CC(C)C)NC(=O)[C@H](CCC(=O)O)NC(=O)[C@@H]2CCCN2C(=O)[C@H](Cc2c[nH]c3ccc(Cl)cc23)NC(=O)[C@H](Cc2c[nH]c3ccccc23)NC(=O)[C@H](CC(=O)O)NC(=O)CCC(=O)NCCCOCCOCCOCCCNC(=O)CN2CCN3CCN4CCN(CC2)CC(=O)[O][In]([O]C(=O)C3)[O]C(=O)C4)CSCc2cccc(c2)CSCCNC1=O [GIP-149, InDOTA-Ttds-Asp-Trp-5Clw-Pro-Glu-leu-[Cys(3MeBn)-Ams-Leu-Ile-AET]] ({X11-Suc}-DW[Trp(5-Cl)]PE[dL]C[αMeS]LI; linker 7-C via X7) | < 10 | 

Source: patent publication US20250296971A1, “GASTRIC INHIBITORY PEPTIDE RECEPTOR LIGANDS” (priority 2021, published 2025)
